Results taken from patent US12440496B2, “Natriuretic peptide receptor a agonists useful for the treatment of cardiometabolic diseases, kidney disease and diabetes” (Merck Sharp & Dohme LLC, priority 2019, dated 2025).

Biological target: T1, hNPRA (Homo sapiens, UniProt P16066)
T1 construct: expressed in transfected cells
T1 sequence (P16066 33-1061): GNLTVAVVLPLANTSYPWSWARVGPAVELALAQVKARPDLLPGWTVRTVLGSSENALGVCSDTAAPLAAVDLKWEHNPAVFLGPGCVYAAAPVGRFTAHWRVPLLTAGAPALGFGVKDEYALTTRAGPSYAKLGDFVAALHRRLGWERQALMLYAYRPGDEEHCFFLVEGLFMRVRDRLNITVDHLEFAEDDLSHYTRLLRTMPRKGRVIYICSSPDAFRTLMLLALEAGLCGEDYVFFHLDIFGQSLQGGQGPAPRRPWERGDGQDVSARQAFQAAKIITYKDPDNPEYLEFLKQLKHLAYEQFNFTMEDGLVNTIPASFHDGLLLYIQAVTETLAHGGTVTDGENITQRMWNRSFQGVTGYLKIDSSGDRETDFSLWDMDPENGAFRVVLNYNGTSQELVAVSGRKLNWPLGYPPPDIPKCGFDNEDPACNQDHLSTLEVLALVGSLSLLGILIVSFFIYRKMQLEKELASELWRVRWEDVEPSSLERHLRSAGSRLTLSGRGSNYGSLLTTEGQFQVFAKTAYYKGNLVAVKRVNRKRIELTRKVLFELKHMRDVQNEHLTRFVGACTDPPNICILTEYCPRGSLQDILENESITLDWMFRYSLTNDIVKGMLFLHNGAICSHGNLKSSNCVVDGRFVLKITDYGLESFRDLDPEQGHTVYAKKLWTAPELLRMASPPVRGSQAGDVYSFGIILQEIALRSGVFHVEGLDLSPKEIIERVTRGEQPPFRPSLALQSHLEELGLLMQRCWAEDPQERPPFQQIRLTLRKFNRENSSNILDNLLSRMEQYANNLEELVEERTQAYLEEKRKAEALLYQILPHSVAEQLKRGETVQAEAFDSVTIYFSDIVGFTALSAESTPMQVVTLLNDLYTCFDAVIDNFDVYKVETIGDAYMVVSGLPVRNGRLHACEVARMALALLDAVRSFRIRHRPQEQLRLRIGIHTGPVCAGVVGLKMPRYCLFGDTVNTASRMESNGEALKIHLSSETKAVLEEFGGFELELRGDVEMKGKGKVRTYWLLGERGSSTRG
Assay: NPRA Functional Cell Assay (cGMP HTRF, NPRA HEK JumpIn stable cells)
Type: cell-based
Settings: cGMP production, 1 hour at 37° C., 10-point dose response
How it was run: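 cGMP HTRF read-out after 1 hour compound treatment at 37° C. of human NPRA-expressing HEK JumpIn cells, 1500 cells/well, in buffer with phosphodiesterase inhibitors IBMX and RO20 (100 uM each). Signal converted to [cGMP] by calibration curve; EC50s fitted by 4-parameter logistic; 50 nM h-ANP as positive response.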

EC50 | Structure (SMILES)
674 nM | CC(C)(C)[C@H]1CCc2nc3sc(C(=O)N[C@H](CCN4CCCC5(CC5)C4)c4ccc(-c5ccc(=O)[nH]c5)cc4)cc3cc2C1 (racemic) [Example 47, rac-(6S)-6-tert-butyl-N-[rac-(1R)-3-(5-azoniaspiro[2.5]octan-5-yl)-1-[4-(6-oxo-1H-pyridin-3-yl)phenyl]propyl]-5,6,7,8-tetrahydrothieno[2,3-b]quinoline-2-carboxamide;formate]
655 nM | CC(C)(C)[C@H]1CCc2nc3sc(C(=O)N[C@H](CCN4CCC5(CC4)CNC(=O)O5)c4ccc(-c5ccc(=O)[nH]c5)cc4)cc3cc2C1 (racemic) [Example 40, rac-(6S)-6-tert-butyl-N-[rac-(1R)-3-(2-oxo-1-oxa-3-aza-8-azoniaspiro[4.5]decan-8-yl)-1-[4-(6-oxo-1H-pyridin-3-yl)phenyl]propyl]-5,6,7,8-tetrahydrothieno[2,3-b]quinoline-2-carboxamide;formate]
452 nM | CC(C)(C)[C@H]1CCc2nc3sc(C(=O)N[C@H](CCN4CCC(O)CC4)c4ccc(-c5cnc(=O)[nH]c5)cc4)nc3cc2C1 (racemic) [Example 127, rac-(7S)-7-tert-butyl-N-[rac-(1R)-3-(4-hydroxypiperidin-1-ium-1-yl)-1-[4-(2-oxo-1H-pyrimidin-5-yl)phenyl]propyl]-5,6,7,8-tetrahydrothiazolo [5,4-b]quinoline-2-carboxamide; 2,2,2-trifluoroacetate]
793 nM | CC(C)(C)[C@H]1CCc2nc3sc(C(=O)N[C@H](CCN4CCC(O)CC4)c4ccc(-c5ncns5)cc4)nc3cc2C1 (racemic) [Example 169, rac-(7S)-7-tert-butyl-N-[rac-(1R)-3-(4-hydroxy-1-piperidyl)-1-[4-(1,2,4-thiadiazol-5-yl)phenyl]propyl]-5,6,7,8-tetrahydrothiazolo[5,4-b]quinoline-2-carboxamide]
795 nM | CC(C)(C)[C@H]1CCc2nc3sc(C(=O)N[C@H](CCN4CCC(O)CC4)c4cccc(N5CCNC5=O)c4)nc3cc2C1 (racemic) [Example 117, rac-(7S)-7-tert-butyl-N-[rac-(1R)-3-(4-hydroxypiperidin-1-ium-1-yl)-1-[3-(2-oxoimidazolidin-1-yl)phenyl]propyl]-5,6,7,8-tetrahydrothiazolo[5,4-b] quinoline-2-carboxamide; 2,2,2-trifluoroacetate]
712 nM | CN(C)S(=O)(=O)Nc1ccc([C@@H](CCN2CC=CCC2)NC(=O)c2nc3cc4c(nc3s2)CC[C@H](C(C)(C)C)C4)cn1 (racemic) [Example 208, rac-(7S)-7-tert-butyl-N-[rac-(1R)-1-[6-(dimethylsulfamoylamino)-3-pyridyl]-3-(1,2,3,6-tetrahydropyridin-1-ium-1-yl)propyl]-5,6,7,8-tetrahydrothiazolo[5,4-b]quinoline-2-carboxamide; 2,2,2-trifluoroacetate]
1020 nM | CC(C)(C)[C@H]1CCc2nc3sc(C(=O)N[C@H](CCN4CCC(O)CC4)c4ccc(-c5ccncc5N)cc4)nc3cc2C1 (racemic) [Example 175, rac-(7S)-7-tert-butyl-N-[rac-(1R)-1-[4-(3-amino-4-pyridyl)phenyl]-3-(4-hydroxy-1-piperidyl)propyl]-5,6,7,8-tetrahydrothiazolo[5,4-b]quinoline-2-carboxamide]
708 nM | CN(C)CC[C@@H](NC(=O)c1cc2cc3c(nc2s1)CC[C@H](C(C)(C)C)C3)c1cccc(NS(C)(=O)=O)c1 (racemic) [Example 9, ammonium; methylsulfonyl-[3-[rac-(1R)-3-(dimethylamino)-1-[rac-(6S)-6-tert-butyl-5,6,7,8-tetrahydrothieno[2,3-b]quinoline-2-carbonyl]amino]propyl]phenyl] azanide]
219 nM | CC1(C)NCCC1NC(=O)c1cccc([C@@H](CCN2CCC(O)CC2)NC(=O)c2nc3cc4c(nc3s2)CC[C@H](C(C)(C)C)C4)c1 (mixture of isomers) [Example 139, rac-(7S)-7-tert-butyl-N-[rac-(1R)-1-[3-[(2,2-dimethylpyrrolidin-3-yl)carbamoyl]phenyl]-3-(4-hydroxy-1-piperidyl)propyl]-5,6,7,8-tetrahydrothiazolo[5,4-b]quinoline-2-carboxamide]
1870 nM | CC(C)(C)[C@H]1CCc2nc3sc(C(=O)NC(CCN4CCCCC4)c4ccccc4)cc3cc2C1 (stereo partly drawn) [Example 242, (6S)-6-tert-butyl-N-(1-phenyl-3-piperidin-1-ylpropyl)-5,6,7,8-tetrahydrothieno[2,3-b]quinoline-2-carboxamide]
696 nM | CCS(=O)(=O)c1ccc([C@@H](CCN2CCC(O)CC2)NC(=O)c2nc3cc4c(nc3s2)CC[C@H](C(C)(C)C)C4)cn1 [Example 227, (S)-7-(tert-butyl)-N-((R)-1-(6-(ethylsulfonyl)pyridin-3-yl)-3-(4-hydroxypiperidin-1-yl)propyl)-5,6,7,8-tetrahydrothiazolo[5,4-b]quinoline-2-carboxamide]
292 nM | CC(C)(C)[C@H]1CCc2nc3sc(C(=O)N[C@H](CCN)c4cccc(C(=O)N[C@H]5CCNC5)c4)cc3cc2C1 [Example 225]
1410 nM | CN1CC(NC(=O)c2cccc([C@@H](CCNCC(=O)O)NC(=O)c3nc4cc5c(nc4s3)CC[C@H](C(C)(C)C)C5)c2)C1 (racemic) [Example 115, carboxymethyl-[rac-(3R)-3-[3-[(1-methylazetidin-3-yl)carbamoyl]phenyl]-3-[rac-(7S)-7-tert-butyl-5,6,7,8-tetrahydrothiazolo[5,4-b]quinoline-2-carbonyl]amino]propyl]ammonium; 2,2,2-trifluoroacetate]
679 nM | O=C(O)C(F)(F)F.[2H]C([2H])([2H])N(CC[C@@H](NC(=O)c1nc2cc3c(nc2s1)CC[C@H](C(C)(C)C)C3)c1ccc(NS(=O)(=O)N(C)C)nc1)C([2H])([2H])[2H] (racemic) [Example 207, [rac-(3R)-3-[6-(dimethylsulfamoylamino)-3-pyridyl]-3-[[rac-(7S)-7-tert-butyl-5,6,7,8-tetrahydrothiazolo[5,4-b]quinoline-2-carbonyl]amino]propyl]-bis(trideuteriomethyl)ammonium; 2,2,2-trifluoroacetate]
634 nM | CC(C)(C)[C@H]1CCc2nc3sc(C(=O)N[C@H](CCNC4CCOCC4)c4ccc(-c5ccc(=O)[nH]c5)cc4)nc3cc2C1 (racemic) [Example 75, rac-(7S)-7-tert-butyl-N-[rac-(1R)-1-[4-(6-oxo-1H-pyridin-3-yl)phenyl]-3-(tetrahydropyran-4-ylamino)propyl]-5,6,7,8-tetrahydrothiazolo[5,4-b]quinoline-2-carboxamide]
1450 nM | CNC(=O)c1cccc([C@@H](CCN(C)C)NC(=O)c2nc3cc4c(nc3s2)CC[C@H](C(C)(C)C)C4)c1 (racemic) [Example 98, rac-(7S)-7-tert-butyl-N-[rac-(1R)-3-(dimethyl-amino)-1-[3-(methylcarbamoyl)phenyl]propyl]-5,6,7,8-tetrahydrothiazolo[5,4-b] quinoline-2-carboxamide]
120 nM | CC1([C@H]2CCc3nc4sc(C(=O)N[C@H](CCN5CCC(O)CC5)c5ccc(-c6c[nH]c(=O)c(F)c6)cc5)nc4cc3C2)CC1 [Example 234, (S)-N-((R)-1-(4-(5-fluoro-6-oxo-1,6-dihydropyridin-3-yl)phenyl)-3-(4-hydroxypiperidin-1-yl)propyl)-7-(1-methylcyclopropyl)-5,6,7,8-tetrahydrothiazolo[5,4-b]quinoline-2-carboxamide]
